Our source for the Activity and IC50 values is ChEMBL document CHEMBL4196241, “Auranthine, a Benzodiazepinone from Penicillium aurantiogriseum: Refined Structure, Absolute Configuration, and Cytotoxicity” (J Nat Prod, 2018).

Active and inactive are the calls of the source. The rule behind the calls is not given here.

The subject of assay [1] is HepG2. Nature of the assay: Cytotoxicity against human HepG2 cells assessed as reduction in cell viability up to 100 uM by CCK8 assay. Format: functional, cell-based.
The species named for assay [2] is Homo sapiens. The experiment in a line: Cytotoxicity against human IHKE cells assessed as reduction in cell viability up to 100 uM by CCK8 assay. Format: functional, cell-based.
Assay [3] is filed under the species Homo sapiens. The experiment in a line: (§1) Cytotoxicity against human IHKE cells assessed as reduction in cell viability by CCK8 assay. The class given is functional, cell-based.
The test system of assay [4] is HepG2. Nature of the assay: Cytotoxicity against human HepG2 cells assessed as reduction in cell viability by CCK8 assay relative to control. The class given is functional, cell-based.
Assay [5] is described as follows: as §1. The class given is functional, cell-based.
In assay [6] the test system is HepG2. The experiment in a line: Cytotoxicity against human HepG2 cells assessed as reduction in cell viability at 100 uM by CCK8 assay relative to control. The class given is functional.

With `N#CCC[C@@H]1NC(=O)c2ccccc2-n2c1nc1ccccc1c2=O`, the result in assay [1] and in assay [2] was inactive.
Turning to `CN1C(=O)c2ccccc2N2C(=O)c3ccccc3N[C@@H]2[C@@H]1CCC#N`, in assay [1], the result was inactive. Also, the Activity result in assay [3] was “Dose-dependent effect”.
For `N#CCC[C@@H]1NC(=O)c2ccccc2N2C(=O)c3ccccc3N[C@H]12`, the outcome in assay [1] and in assay [2] was inactive.
Turning to `C=CC(C)(C)c1[nH]cnc1/C=C1\NC(=O)[C@H](C(C)C)NC1=O`, the figures for the Activity result in assay [4] and in assay [6] were “Dose-dependent effect” and “<=56%”, respectively. For the same molecule, the IC50 in assay [5] came to 25 µM.
